According to ChEMBL document CHEMBL5715260, “Selectivity Literature for EUbOPEN Chemogenomic Library” (2024):

Columns and labels:
[1] = molecular target: Lysine-specific histone demethylase 2 (Homo sapiens, UniProt Q8NB78); assay: Selectivity interaction (Proteomics) EUB0000269cCl KDM1B/LSD2; design: recommended concentration 1 uM
[2] = molecular target: Bromodomain-containing protein 4 (Homo sapiens, UniProt O60885); assay: Selectivity interaction (Proteomics) EUB0000269cCl BRD4; design: recommended concentration 1 uM
[3] = molecular target: T1, Hepatocyte nuclear factor 4-alpha (Homo sapiens) (UniProt P41235); assay: Selectivity interaction (Reporter gene assay) EUB0002358a HNF4A; design: recommended concentration 10 uM
T1 sequence (whole entry): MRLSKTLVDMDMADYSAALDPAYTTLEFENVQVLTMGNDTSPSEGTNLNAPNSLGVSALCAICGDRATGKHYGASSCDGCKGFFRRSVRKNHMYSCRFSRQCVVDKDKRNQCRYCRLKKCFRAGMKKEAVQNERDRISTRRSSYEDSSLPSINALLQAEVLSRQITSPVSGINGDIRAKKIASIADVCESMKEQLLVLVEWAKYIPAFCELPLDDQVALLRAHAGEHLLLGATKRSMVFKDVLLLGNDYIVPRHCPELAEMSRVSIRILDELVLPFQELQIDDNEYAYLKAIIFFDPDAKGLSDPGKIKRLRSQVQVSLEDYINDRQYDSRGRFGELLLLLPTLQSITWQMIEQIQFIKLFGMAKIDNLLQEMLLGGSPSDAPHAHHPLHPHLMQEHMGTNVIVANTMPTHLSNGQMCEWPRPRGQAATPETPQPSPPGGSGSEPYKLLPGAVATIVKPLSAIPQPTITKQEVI

[4] = molecular target: T2, Nuclear receptor subfamily 2 group C member 1 (Homo sapiens) (UniProt P13056); assay: Selectivity interaction (Reporter gene assay) EUB0002358a NR2C1; design: recommended concentration 10 uM
T2 sequence (whole entry): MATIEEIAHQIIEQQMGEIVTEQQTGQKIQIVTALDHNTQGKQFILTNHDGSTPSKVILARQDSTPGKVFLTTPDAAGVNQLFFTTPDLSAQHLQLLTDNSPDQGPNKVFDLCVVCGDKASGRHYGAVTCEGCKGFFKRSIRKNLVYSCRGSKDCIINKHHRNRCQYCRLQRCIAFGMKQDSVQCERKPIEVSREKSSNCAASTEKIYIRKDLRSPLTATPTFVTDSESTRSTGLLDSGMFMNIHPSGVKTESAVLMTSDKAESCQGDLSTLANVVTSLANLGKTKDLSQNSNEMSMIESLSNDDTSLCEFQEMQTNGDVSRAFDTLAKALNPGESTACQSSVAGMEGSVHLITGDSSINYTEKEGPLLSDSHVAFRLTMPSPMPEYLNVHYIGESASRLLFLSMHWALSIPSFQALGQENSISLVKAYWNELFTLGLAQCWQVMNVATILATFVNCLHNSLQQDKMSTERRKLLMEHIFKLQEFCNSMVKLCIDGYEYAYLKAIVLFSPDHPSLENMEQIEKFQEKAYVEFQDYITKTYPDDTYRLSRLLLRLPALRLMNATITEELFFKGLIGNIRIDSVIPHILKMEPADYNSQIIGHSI

[5] = molecular target: T3, Alpha trans-inducing protein (Human alphaherpesvirus 1) (UniProt A0A5J6DW59); assay: Selectivity interaction (Reporter gene assay) EUB0002358a UL48; design: recommended concentration 10 uM
T3 sequence (A0A5J6DW59 as listed by the source): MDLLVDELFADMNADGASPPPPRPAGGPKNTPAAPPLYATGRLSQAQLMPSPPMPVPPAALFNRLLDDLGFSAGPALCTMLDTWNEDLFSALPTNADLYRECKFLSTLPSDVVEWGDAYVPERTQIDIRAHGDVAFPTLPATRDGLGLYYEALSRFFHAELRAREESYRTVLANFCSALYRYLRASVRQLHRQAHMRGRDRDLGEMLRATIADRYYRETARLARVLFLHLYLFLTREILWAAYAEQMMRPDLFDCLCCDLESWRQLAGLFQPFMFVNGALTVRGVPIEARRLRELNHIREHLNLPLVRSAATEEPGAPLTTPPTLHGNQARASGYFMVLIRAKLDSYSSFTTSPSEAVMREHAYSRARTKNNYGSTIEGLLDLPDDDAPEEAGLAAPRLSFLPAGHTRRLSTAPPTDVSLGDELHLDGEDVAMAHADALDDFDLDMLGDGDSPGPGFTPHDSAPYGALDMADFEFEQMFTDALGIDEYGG

[6] = molecular target: Nuclear receptor subfamily 2 group E member 1 (Homo sapiens) (UniProt Q9Y466); assay: Selectivity interaction (Reporter gene assay) EUB0002358a NR2E1; design: recommended concentration 10 uM
Chain of Nuclear receptor subfamily 2 group E member 1 (Homo sapiens) (Q9Y466 whole entry): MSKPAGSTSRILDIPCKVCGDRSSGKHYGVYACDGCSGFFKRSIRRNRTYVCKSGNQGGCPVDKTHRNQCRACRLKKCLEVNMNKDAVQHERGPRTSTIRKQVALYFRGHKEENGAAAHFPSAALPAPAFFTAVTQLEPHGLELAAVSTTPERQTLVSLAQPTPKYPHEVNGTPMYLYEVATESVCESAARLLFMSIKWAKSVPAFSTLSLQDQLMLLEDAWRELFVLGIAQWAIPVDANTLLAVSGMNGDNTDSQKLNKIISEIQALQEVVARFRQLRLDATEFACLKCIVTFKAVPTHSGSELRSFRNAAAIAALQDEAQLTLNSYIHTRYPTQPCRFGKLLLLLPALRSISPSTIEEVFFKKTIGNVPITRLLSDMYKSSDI

[7] = molecular target: T4, Retinoic acid receptor RXR-alpha (Homo sapiens) (UniProt P19793); assay: Selectivity interaction (Reporter gene assay) EUB0002358a RXRA; design: recommended concentration 10 uM; details: reference bexarotene 1 uM, Selectivity number of off-targets 0.0, Selectivity number of targets 1.0, Source Knowledge inhouse
T4 sequence (whole entry): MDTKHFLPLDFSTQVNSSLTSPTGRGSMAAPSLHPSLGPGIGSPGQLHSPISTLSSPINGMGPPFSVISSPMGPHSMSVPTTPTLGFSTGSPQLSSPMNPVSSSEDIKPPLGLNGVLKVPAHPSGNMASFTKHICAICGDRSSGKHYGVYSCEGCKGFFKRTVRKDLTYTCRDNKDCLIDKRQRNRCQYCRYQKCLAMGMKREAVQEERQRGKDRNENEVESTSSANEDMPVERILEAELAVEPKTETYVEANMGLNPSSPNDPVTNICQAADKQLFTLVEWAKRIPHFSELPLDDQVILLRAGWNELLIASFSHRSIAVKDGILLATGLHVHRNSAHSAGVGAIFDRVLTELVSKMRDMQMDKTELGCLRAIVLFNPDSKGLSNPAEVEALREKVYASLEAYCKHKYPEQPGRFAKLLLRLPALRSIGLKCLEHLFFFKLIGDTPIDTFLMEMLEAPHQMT

[8] = molecular target: Steroidogenic factor 1 (Homo sapiens) (UniProt Q13285); assay: Selectivity interaction (Reporter gene assay) EUB0002358a NR5A1; design: recommended concentration 10 uM
Chain of Steroidogenic factor 1 (Homo sapiens) (Q13285 whole entry): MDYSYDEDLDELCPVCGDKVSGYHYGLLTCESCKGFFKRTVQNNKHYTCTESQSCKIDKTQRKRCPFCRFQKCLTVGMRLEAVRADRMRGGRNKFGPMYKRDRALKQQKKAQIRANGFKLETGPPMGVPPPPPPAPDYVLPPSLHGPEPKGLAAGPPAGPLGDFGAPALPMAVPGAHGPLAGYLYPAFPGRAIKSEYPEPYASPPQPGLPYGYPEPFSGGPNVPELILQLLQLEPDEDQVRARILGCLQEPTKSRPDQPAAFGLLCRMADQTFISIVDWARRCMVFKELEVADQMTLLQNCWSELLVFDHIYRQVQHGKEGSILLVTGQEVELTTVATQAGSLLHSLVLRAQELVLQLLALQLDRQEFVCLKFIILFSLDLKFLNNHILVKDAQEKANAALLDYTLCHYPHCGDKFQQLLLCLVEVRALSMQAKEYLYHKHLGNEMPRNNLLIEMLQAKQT

[9] = molecular target: Nuclear receptor subfamily 4immunitygroup A member 1 (Homo sapiens) (UniProt P22736); assay: Selectivity interaction (Reporter gene assay) EUB0002358a NR4A1; design: recommended concentration 10 uM
Chain of Nuclear receptor subfamily 4immunitygroup A member 1 (Homo sapiens) (P22736 whole entry): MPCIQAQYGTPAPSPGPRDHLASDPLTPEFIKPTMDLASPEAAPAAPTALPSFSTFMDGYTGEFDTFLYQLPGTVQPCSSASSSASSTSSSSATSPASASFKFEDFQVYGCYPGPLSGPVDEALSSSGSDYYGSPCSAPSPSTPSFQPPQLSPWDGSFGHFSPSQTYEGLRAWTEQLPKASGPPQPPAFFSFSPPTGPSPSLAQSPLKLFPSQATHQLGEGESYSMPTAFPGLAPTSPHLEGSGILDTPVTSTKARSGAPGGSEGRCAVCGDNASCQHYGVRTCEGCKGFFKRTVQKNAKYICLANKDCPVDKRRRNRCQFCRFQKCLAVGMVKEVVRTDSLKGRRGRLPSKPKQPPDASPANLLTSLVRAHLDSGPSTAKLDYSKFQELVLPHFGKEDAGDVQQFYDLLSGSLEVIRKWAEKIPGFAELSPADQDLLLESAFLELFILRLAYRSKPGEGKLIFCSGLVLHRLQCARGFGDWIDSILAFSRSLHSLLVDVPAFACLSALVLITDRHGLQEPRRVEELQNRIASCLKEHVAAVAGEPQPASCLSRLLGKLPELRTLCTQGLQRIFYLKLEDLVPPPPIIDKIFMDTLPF

[10] = molecular target: Nuclear receptor subfamily 2 group E member 1 (Homo sapiens) (UniProt Q9Y466); assay: Selectivity interaction (Reporter gene assay) EUB0002359a NR2E1; design: recommended concentration 1 uM
[11] = molecular target: T3, Alpha trans-inducing protein (Human alphaherpesvirus 1); assay: Selectivity interaction (Reporter gene assay) EUB0002359a UL48; design: recommended concentration 1 uM
[12] = molecular target: T1, Hepatocyte nuclear factor 4-alpha (Homo sapiens); assay: Selectivity interaction (Reporter gene assay) EUB0002359a HNF4A; design: recommended concentration 1 uM
[13] = molecular target: T2, Nuclear receptor subfamily 2 group C member 1 (Homo sapiens); assay: Selectivity interaction (Reporter gene assay) EUB0002359a NR2C1; design: recommended concentration 1 uM
[14] = molecular target: Steroidogenic factor 1 (Homo sapiens) (UniProt Q13285); assay: Selectivity interaction (Reporter gene assay) EUB0002359a NR5A1; design: recommended concentration 1 uM
[15] = molecular target: Nuclear receptor subfamily 4immunitygroup A member 1 (Homo sapiens) (UniProt P22736); assay: Selectivity interaction (Reporter gene assay) EUB0002359a NR4A1; design: recommended concentration 1 uM
[16] = molecular target: T4, Retinoic acid receptor RXR-alpha (Homo sapiens); assay: Selectivity interaction (Reporter gene assay) EUB0002359a RXRA; design: recommended concentration 1 uM; details: reference bexarotene 1 uM, Selectivity number of off-targets 0.0, Selectivity number of targets 1.0, Source Knowledge inhouse
[17] = molecular target: Steroidogenic factor 1 (Homo sapiens) (UniProt Q13285); assay: Selectivity interaction (Reporter gene assay) EUB0002355a NR5A1; design: recommended concentration 3 uM
[18] = molecular target: T1, Hepatocyte nuclear factor 4-alpha (Homo sapiens); assay: Selectivity interaction (Reporter gene assay) EUB0002355a HNF4A; design: recommended concentration 3 uM
[19] = molecular target: T3, Alpha trans-inducing protein (Human alphaherpesvirus 1); assay: Selectivity interaction (Reporter gene assay) EUB0002355a UL48; design: recommended concentration 3 uM
[20] = molecular target: T2, Nuclear receptor subfamily 2 group C member 1 (Homo sapiens); assay: Selectivity interaction (Reporter gene assay) EUB0002355a NR2C1; design: recommended concentration 3 uM
[21] = molecular target: T4, Retinoic acid receptor RXR-alpha (Homo sapiens); assay: Selectivity interaction (Reporter gene assay) EUB0002355a RXRA; design: recommended concentration 3 uM; details: reference bexarotene 1 uM, Selectivity number of off-targets 0.0, Selectivity number of targets 1.0, Source Knowledge inhouse
[22] = molecular target: Nuclear receptor subfamily 4immunitygroup A member 1 (Homo sapiens) (UniProt P22736); assay: Selectivity interaction (Reporter gene assay) EUB0002355a NR4A1; design: recommended concentration 3 uM
[23] = molecular target: Nuclear receptor subfamily 2 group E member 1 (Homo sapiens) (UniProt Q9Y466); assay: Selectivity interaction (Reporter gene assay) EUB0002355a NR2E1; design: recommended concentration 3 uM

Chain of Lysine-specific histone demethylase 2 (Q8NB78 whole entry): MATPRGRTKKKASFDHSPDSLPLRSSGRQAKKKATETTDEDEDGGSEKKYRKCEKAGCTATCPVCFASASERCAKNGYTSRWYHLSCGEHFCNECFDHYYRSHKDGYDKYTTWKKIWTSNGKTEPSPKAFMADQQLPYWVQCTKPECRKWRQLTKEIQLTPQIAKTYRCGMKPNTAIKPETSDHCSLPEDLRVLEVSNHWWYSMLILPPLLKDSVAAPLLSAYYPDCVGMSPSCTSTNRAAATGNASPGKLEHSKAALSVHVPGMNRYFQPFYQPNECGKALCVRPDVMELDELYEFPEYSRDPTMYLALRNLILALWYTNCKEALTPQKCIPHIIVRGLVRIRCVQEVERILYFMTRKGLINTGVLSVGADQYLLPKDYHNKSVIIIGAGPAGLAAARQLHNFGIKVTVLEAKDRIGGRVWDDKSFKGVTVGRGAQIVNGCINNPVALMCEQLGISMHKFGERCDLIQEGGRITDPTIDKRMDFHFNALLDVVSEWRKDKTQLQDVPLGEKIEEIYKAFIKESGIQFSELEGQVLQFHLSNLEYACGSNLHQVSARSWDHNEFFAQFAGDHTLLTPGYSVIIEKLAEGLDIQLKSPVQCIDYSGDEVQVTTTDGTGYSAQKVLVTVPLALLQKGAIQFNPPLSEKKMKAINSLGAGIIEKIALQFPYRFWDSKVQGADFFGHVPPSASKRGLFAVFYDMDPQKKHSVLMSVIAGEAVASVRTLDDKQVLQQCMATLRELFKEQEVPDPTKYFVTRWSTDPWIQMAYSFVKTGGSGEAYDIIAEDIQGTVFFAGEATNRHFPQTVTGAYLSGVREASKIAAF

Compound Cc1cc(CN)cc(C)c1-c1ncn(C)c1-c1ccnc2cc(F)ccc12 has an IC50 [1] greater than 100 µM and an IC50 [2] greater than 1000 µM.

With O=c1[nH]c2ccccc2n1CCCN1CCN(C(c2ccccc2)c2ccccc2)CC1 the Fold activation [3] was 0.736, the Fold activation [4] was 0.803 and the P-value [5] was 6e-08. For the same compound, the Fold activation [6] was 0.661, the Relative activation [7] was 0.76% and the Remaining activity [8] was 1.07. For the same compound, the Fold activation [9] was 1.16.

CC(C)c1c(CN(C)C(C)Cc2ccccc2)n(C)n(-c2ccccc2)c1=O (stereo not drawn) was tested, and the Remaining activity [10] was 0.769, the P-value [11] was 0.00161 and the Fold activation [12] was 1.15. For the same compound, the Fold activation [13] was 1.13, the Fold activation [14] was 1.12 and the Remaining activity [15] was 0.96. The Relative activation [16] was 0.69%.

For Cc1oc2ccccc2c1Cc1cc(I)c(OCC(=O)O)c(I)c1, the Remaining activity [17] was 0.684, the Remaining activity [18] was 0.739 and the P-value [19] was 0.0128. The Fold activation [20] was 1.28, the Relative activation [21] was 0.91% and the Fold activation [22] was 1.02. The Remaining activity [23] was 0.732.
